Data from article PMC6934184, “Selective DNA-PKcs inhibition extends the therapeutic index of localized radiotherapy and chemotherapy” (The Journal of Clinical Investigation, 2019).

Target: T1, PRKCQ (PKC theta) (Homo sapiens, UniProt Q04759)
T1 construct: purchased Thermo Fisher Scientific (Life Technologies) SelectScreen
Test: SelectScreen Z'LYTE
Type: biochemical
Procedure, shortened: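 Percent values come from Thermo SelectScreen profiling of NU5455, combining activity and binding assays. CSF1R was run in Z'LYTE format at Km app ATP, and CAMK1 in Adapta format with ATP listed at 10.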

T1 sequence (Q04759 whole entry): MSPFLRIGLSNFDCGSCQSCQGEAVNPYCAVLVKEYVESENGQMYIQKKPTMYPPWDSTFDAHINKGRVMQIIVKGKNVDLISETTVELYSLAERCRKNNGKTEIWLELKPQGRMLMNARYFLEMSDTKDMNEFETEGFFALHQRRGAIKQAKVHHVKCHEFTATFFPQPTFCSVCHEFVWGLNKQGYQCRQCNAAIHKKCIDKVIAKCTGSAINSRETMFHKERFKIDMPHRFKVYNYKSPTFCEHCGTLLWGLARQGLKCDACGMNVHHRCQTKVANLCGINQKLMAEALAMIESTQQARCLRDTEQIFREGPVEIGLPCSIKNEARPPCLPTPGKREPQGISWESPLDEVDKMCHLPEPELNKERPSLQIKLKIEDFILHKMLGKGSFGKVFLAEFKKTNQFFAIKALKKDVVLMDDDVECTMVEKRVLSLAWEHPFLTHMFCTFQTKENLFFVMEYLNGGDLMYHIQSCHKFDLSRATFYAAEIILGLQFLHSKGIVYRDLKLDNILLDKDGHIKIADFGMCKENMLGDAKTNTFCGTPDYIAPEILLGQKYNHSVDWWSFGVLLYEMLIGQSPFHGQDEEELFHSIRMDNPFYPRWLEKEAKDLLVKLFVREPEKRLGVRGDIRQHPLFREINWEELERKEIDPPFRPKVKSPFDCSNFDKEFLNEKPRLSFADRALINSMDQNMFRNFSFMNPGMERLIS

SMILES: CN(C(=O)CN1CCOCC1)c1ccc2sc3c(-c4cccc5c(=O)cc(N6CC7CCC(C6)O7)oc45)cccc3c2c1 [NU5455]
- inhibition at 1 µM: -3.7%
